Laboratory results published in BigSolDB 2.1.

Cc1nc(N)nc(N)n1
solubility (mole fraction)
Conditions	283.15 K	288.15 K	293.15 K	298.15 K	303.15 K	308.15 K	313.15 K	318.15 K	323.15 K
in 1,4-dioxane	0.000584	0.000676	0.000782	0.000899	0.00107	0.00126	0.00152	0.00177	0.00205
in DMF	0.00103	0.0012	0.00133	0.00151	0.0018	0.00209	0.00247	0.00283	0.00325
in acetonitrile	9.52e-05	0.000117	0.000141	0.00018	0.000228	0.000287	0.000345	0.000426	0.000523
in ethanol	0.000226	0.000258	0.000315	0.000386	0.000485	0.000592	0.000688	0.000845	0.000999
in ethyl acetate	0.000671	0.00078	0.000928	0.00104	0.00125	0.00142	0.00171	0.00198	0.00229
in ethylene glycol	0.000797	0.000935	0.00109	0.00121	0.00145	0.00164	0.00193	0.00225	0.00259
in isobutanol	0.000392	0.000454	0.000551	0.000663	0.000792	0.000931	0.0011	0.00127	0.00153
in isopropanol	0.00027	0.000325	0.000393	0.00047	0.000587	0.000698	0.000808	0.000973	0.00115
in methanol	0.000159	0.000192	0.000235	0.000289	0.000365	0.000434	0.000553	0.000636	0.000782
in n-butanol	0.000477	0.000536	0.00064	0.000764	0.000919	0.00111	0.00131	0.0015	0.00177
in n-propanol	0.000321	0.000385	0.000452	0.00054	0.000689	0.000836	0.000985	0.00115	0.00132
in water	0.000122	0.000146	0.000182	0.000228	0.000285	0.000362	0.000426	0.000521	0.000633
